Source: US20160311791A1, “NOVEL TRICYCLIC CALCIUM SENSING RECEPTOR ANTOGONISTS FOR THE TREATMENT OF OSTEOPOSOSIS” (MERCK SHARP & DOHME CORP., priority 2013, published 2016)

target: T1, human CaSR (Homo sapiens, UniProt P41180); experiment: CaSR FLIPR assay (calcilytic activity); type: cell-based; design: expressed in transfected cells; conditions: HEK293 cells stably expressing human recombinant CaSR; 1 mM CaCl2 agonist; Tables 1-24; read-out: FLIPR ASSAY IC50
T1 sequence (P41180 20-1078): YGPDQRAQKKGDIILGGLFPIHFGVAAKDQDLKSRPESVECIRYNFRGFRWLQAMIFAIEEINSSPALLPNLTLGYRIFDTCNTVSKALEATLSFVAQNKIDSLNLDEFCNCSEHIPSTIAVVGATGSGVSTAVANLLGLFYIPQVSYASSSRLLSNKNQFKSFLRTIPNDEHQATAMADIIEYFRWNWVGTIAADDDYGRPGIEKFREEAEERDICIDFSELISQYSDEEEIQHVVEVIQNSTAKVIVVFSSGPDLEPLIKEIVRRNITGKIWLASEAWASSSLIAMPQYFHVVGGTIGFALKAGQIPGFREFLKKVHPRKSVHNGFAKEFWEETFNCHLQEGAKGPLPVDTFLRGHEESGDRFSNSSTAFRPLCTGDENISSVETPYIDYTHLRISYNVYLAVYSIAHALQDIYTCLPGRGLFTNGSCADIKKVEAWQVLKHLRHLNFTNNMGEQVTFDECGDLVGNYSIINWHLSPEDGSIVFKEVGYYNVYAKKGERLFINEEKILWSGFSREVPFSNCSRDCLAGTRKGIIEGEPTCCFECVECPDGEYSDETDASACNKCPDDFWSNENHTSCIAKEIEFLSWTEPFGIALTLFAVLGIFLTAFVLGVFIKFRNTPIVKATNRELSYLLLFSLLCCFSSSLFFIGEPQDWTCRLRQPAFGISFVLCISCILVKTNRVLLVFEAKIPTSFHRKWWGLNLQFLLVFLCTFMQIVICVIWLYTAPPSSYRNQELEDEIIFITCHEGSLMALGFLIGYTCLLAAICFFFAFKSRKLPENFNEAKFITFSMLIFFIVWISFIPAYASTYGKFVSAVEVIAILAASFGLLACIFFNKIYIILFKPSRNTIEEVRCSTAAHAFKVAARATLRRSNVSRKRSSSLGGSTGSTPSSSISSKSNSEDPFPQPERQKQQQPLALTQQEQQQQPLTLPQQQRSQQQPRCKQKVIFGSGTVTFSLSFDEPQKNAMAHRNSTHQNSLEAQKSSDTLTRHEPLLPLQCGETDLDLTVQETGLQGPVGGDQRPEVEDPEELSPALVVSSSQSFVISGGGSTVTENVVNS
Experimental: Procedures for CaSR FLIPR Assay
Calcilytic activity of the compound is measured in HEK293 cells stably expressing human recombinant CaSR (HEK-CaSR) using a FLIPR^TETRA device (Molecular Devices, Sunnyvale, Calif.) according to the manufacturer's directions. […] On the day of the assay, one vial of FLIPR Calcium 4 Assay Kit reagent Component A was equilibrated to room temperature. The content of the Component A vial was diluted by adding 10 ml dilution buffer (2×loading dye). The sample was mixed by vortexing (1-2 minutes) until the contents of the vial dissolved. The Component A vial mixture was diluted with 10 ml dilution buffer. Media was aspirated from the cells and 80 μl of loading buffer was added to each well. Plates were incubated for 1 hour at 37° C. and then placed at room temperature for 10 minutes. A two-stage method of generating 10-point serial dilutions was used. Compound was serially diluted in 100% DMSO (10 point, 3-fold dilution of each compound from 2 mM in 100% DMSO). 3 μl of serially diluted compound was transferred into a second assay microplate that contained 97 μl of TETRA dilution buffer (20 mM HEPES pH7.4, 1×HBSS without Ca and Mg, 0.4 mM CaCl2, 0.4 mM MgSO4, 0.5 mM MgCl2) to create the intermediate dilution plate. After reading the base line, the compounds in 0.5% DMSO in dilution buffer were added to their respective wells as 20 μl aliquots at 6×the final drug concentration. The fluorescence signals were then read. Subsequently, 20 μl of 3.6 mM of CaCl2 agonist (1 mM final concentration) was added to each well. For background, 20 μl of TETRA dilution buffer was added instead. The protocol consisted of a pre-addition read of 10 frames (10×1 frame/sec), a post 1st addition read of 100 frames (60×1 frame/sec, 40×1 frame/3 sec), pause 3 min, a post 2nd addition read of 100 frames (60×1 frame/sec, 40×1 frame/3 sec) on a FLIPR^TETRA Plate Reader.

Structure (SMILES)	IC50 [nM]
C[C@@H](OC[C@H](O)CNC(C)(C)Cc1ccc2ccccc2c1)c1cccc2c1[C@H]1[C@@H](O2)[C@@H]1C(=O)O [Example 7-1]	80
Cc1ccc(CC(C)(C)NC[C@@H](O)CO[C@H](C)c2ccc(C)c3c2C2[C@H](O3)[C@H]2C(=O)O)cc1C (stereo partly drawn) [Example 8-5]	18
C[C@@H](OC[C@H](O)CNC(C)(C)Cc1ccc2c(c1)OCCO2)c1cccc2c1[C@@H]1[C@H](O2)[C@H]1C(=O)O [Example 5-10]	153
Cc1ccc(CC(C)(C)NC[C@@H](O)CO[C@H](C)c2cccc3c2O[C@H]2[C@H](C(=O)O)[C@@H]32)cc1C [Example 2-4]	381
COc1ccc(CC(C)(C)NC[C@@H](O)CO[C@H](C)c2ccc(C)c3c2[C@H]2[C@@H](O3)[C@@H]2C(=O)O)cc1F [Example 9-5]	224
COc1ccc(CC(C)(C)NC[C@@H](O)CO[C@H](C)c2ccc(C)c3c2[C@@H]2[C@H](O3)[C@H]2C(=O)O)c(Cl)c1 [Example 8-28]	22
C[C@@H](OC[C@H](O)CNC(C)(C)Cc1ccc2sccc2c1)c1cccc2c1[C@@H]1[C@H](O2)[C@H]1C(=O)O [Example 5-9]	23
C[C@@H](OC[C@H](O)CNC(C)(C)Cc1ccc([S+](C)[O-])c(F)c1)c1cccc2c1[C@@H]1[C@H](O2)[C@H]1C(=O)O (stereo partly drawn) [Example 5-15]	> 10000
CSc1ccc(CC(C)(C)NC[C@@H](O)CO[C@H](C)c2ccc(C)c3c2[C@@H]2[C@H](O3)[C@H]2C(=O)O)cc1C [Example 8-34]	82
Cc1ccc([C@@H](C)OC[C@H](O)CNC(C)(C)Cc2c(F)cc(F)cc2F)c2c1O[C@@H]1[C@@H](C(=O)O)[C@H]21 [Example 8-22]	210
Cc1ccc([C@@H](C)OC[C@H](O)CNC(C)(C)CCSc2ccccc2)c2c1O[C@@H]1[C@@H](C(=O)O)[C@H]21 [Example 8-30]	50
C[C@@H](OC[C@H](O)CNC(C)(C)Cc1ccc2ccccc2c1)c1cccc2c1O[C@H]1[C@H](C(=O)O)[C@@H]21 [Example 2-1]	132
Cc1ccc([C@@H](C)OC[C@H](O)CNC(C)(C)Cc2ccc(Cl)c(F)c2)c2c1O[C@H]1[C@H](C(=O)O)[C@@H]21 [Example 9-2]	78
Cc1ccc([C@@H](C)OC[C@H](O)CNC(C)(C)Cc2ccc(Cl)c(Cl)c2)c2c1O[C@H]1[C@H](C(=O)O)[C@@H]21 [Example 9-10]	42
COc1ccc(CC(C)(C)NC[C@@H](O)CO[C@H](C)c2cccc3c2O[C@@H]2[C@@H](C(=O)O)[C@H]32)c(Cl)c1 [Example 1-19]	170
Cc1ccc(CC(C)(C)NC[C@@H](O)CO[C@H](C)c2cccc3c2O[C@@H]2[C@@H](C(=O)O)[C@H]32)c(F)c1 [Example 1-11]	140
Cc1ccc([C@@H](C)OC[C@H](O)CNC(C)(C)CSc2ccc(F)cc2)c2c1O[C@@H]1[C@@H](C(=O)O)[C@H]21 [Example 8-32]	1410
C[C@@H](OC[C@H](O)CNC(C)(C)Cc1ccc([S+](C)[O-])c(F)c1)c1cccc2c1O[C@@H]1[C@@H](C(=O)O)[C@H]21 (stereo partly drawn) [Example 1-18]	> 10000
CSc1ccc(CC(C)(C)NC[C@@H](O)CO[C@H](C)c2cccc3c2[C@@H]2[C@H](C3)[C@H]2C(=O)O)cc1F [Example 13-5]	130
C[C@@H](OC[C@H](O)CNC(C)(C)Cc1ccc2c(c1)OCO2)c1cccc2c1O[C@@H]1[C@@H](C(=O)O)[C@H]21 [Example 1-8]	320
COc1ccc(CC(C)(C)NC[C@@H](O)CO[C@H](C)c2cccc3c2[C@@H]2[C@H](O3)[C@H]2C(=O)O)c(Cl)c1 [Example 5-16]	38

Structure (SMILES)	IC50 [nM]
C[C@@H](OC[C@H](O)CNC(C)(C)CCCc1ccccc1)c1cccc2c1O[C@@H]1[C@@H](C(=O)O)[C@H]21 [Example 1-14]	38
Cc1ccc([C@@H](C)OC[C@H](O)CNC(C)(C)Cc2ccc(Cl)c(F)c2)c2c1O[C@@H]1[C@@H](C(=O)O)[C@H]21 [Example 8-2]	58.5
Cc1ccc([C@@H](C)OC[C@H](O)CNC(C)(C)Cc2ccc3c(c2)OCCO3)c2c1O[C@@H]1[C@@H](C(=O)O)[C@H]21 [Example 8-13]	22
Cc1ccc([C@@H](C)OC[C@H](O)CNC(C)(C)Cc2ccc3c(c2)CCC3)c2c1O[C@H]1[C@H](C(=O)O)[C@@H]21 [Example 9-6]	53
Cc1ccc([C@@H](C)OC[C@H](O)CNC(C)(C)CC2Cc3ccccc3C2)c2c1O[C@H]1[C@H](C(=O)O)[C@@H]21 [Example 9-3]	46
C[C@@H](OC[C@H](O)CNC(C)(C)Cc1ccc(Cl)cc1F)c1cccc2c1O[C@H]1[C@H](C(=O)O)[C@@H]21 [Example 2-6]	730
Cc1ccc([C@@H](C)OC[C@H](O)CNC(C)(C)Cc2ccc3ncccc3c2)c2c1O[C@H]1C2[C@@H]1C(=O)O (stereo partly drawn) [Example 8-25]	460
Cc1ccc([C@@H](C)OC[C@H](O)CNC2(Cc3ccc4ccccc4c3)CC2)c2c1O[C@H]1[C@H](C(=O)O)[C@@H]21 [Example 9-7]	187
CCOC(=O)[C@@H]1[C@H]2Oc3cccc([C@@H](C)OC[C@H](O)CNC(C)(C)Cc4ccc5ccccc5c4)c3[C@H]21 [Example 5-20]	130
Cc1ccc([C@@H](C)OC[C@H](O)CNC(C)(C)Cc2ccc3c(c2)OCO3)c2c1O[C@@H]1[C@@H](C(=O)O)[C@H]21 [Example 8-11]	50
Cc1ccc([C@@H](C)OC[C@H](O)CNC(C)(C)Cc2cc(F)c(F)cc2F)c2c1O[C@@H]1[C@@H](C(=O)O)[C@H]21 [Example 8-21]	99
Cc1ccc(CC(C)(C)NC[C@@H](O)CO[C@H](C)c2ccc(C)c3c2[C@H]2[C@@H](O3)[C@@H]2C(=O)O)cc1F [Example 9-4]	68
C[C@@H](OC[C@H](O)CNC(C)(C)CC1Cc2ccccc2C1)c1cccc2c1O[C@@H]1[C@@H](C(=O)O)[C@H]21 [Example 1-3]	40
Cc1ccc([C@@H](C)OC[C@H](O)CNC(C)(C)Cc2ccc3c(c2)CCS3(=O)=O)c2c1O[C@@H]1[C@@H](C(=O)O)[C@H]21 [Example 8-27]	> 10000
CSc1ccc(CC(C)(C)NC[C@@H](O)CO[C@H](C)c2cccc3c2[C@@H]2[C@H](O3)[C@H]2C(=O)O)cc1 [Example 5-13]	72
Cc1ccc(C(C)OC[C@H](O)CNC(C)(C)Cc2ccc3ccccc3c2)c2c1OC(C)(C)C1C(C(=O)O)C21 (stereo partly drawn) [Example 24-1]	106
C[C@@H](OC[C@H](O)CNC(C)(C)Cc1ccc2ccccc2c1)c1cc(Cl)cc2c1O[C@@H]1[C@@H](C(=O)O)[C@H]21 [Example 20-1]	20
CSc1ccc(CC(C)(C)NC[C@@H](O)CO[C@H](C)c2ccc(C)c3c2[C@@H]2[C@H](O3)[C@H]2C(=O)O)cc1Cl [Example 8-33]	30
Cc1ccc([C@@H](C)OC[C@H](O)CNC(C)(C)CCSc2ccc(F)cc2)c2c1O[C@@H]1[C@@H](C(=O)O)[C@H]21 [Example 8-31]	65
CCOC(=O)[C@@H]1[C@H]2Oc3c(C)ccc([C@@H](C)OC[C@H](O)CNC(C)(C)Cc4ccc(SC)c(F)c4)c3[C@H]21 [Example 12-1]	130
CSc1ccc(CC(C)(C)NC[C@@H](O)CO[C@H](C)c2cccc3c2O[C@@H]2[C@@H](C(=O)O)[C@H]32)cc1Cl [Example 1-21]	86
